How the values were obtained:
Type in all cases: cell-based
B16F10 Cell Line = assay: Transfection of B16F10 Cell Line with FLuc mRNA LNPs (ONE-Glo EX luciferase signal); details: 200 ng Fluc mRNA-LNP, 24 hours
Procedure: (§1) mRNA encapsulated lipid nanoparticles (mRNA LNPs) were formulated using microfluidic mixing with a PNI Ignite instrument. Briefly, lipids (ionizable: structural: helper: PEG) were dissolved in ethanol and mixed with and aqueous solution of mRNA. These mRNA-loaded dispersions were then neutralized via a buffer exchange with a pre-determined buffer overnight. Afterwards, formed LNPs were concentrated with Amicon filter centrifugation, filtered, concentration of mRNA determined through a ribogreen assay, and frozen at −80° C. until use.
(§2) Cell lines were grown to confluence in T75 flasks using complete media of DMEM-F12 for AML12 and DMEM for both B16F10 and MC38.K. Cells were plated in a white 96 flat-well plate (AML12=20,000 cells/well, B16F10 and MC38.K=5,000 cells/well) with their respected media. Lipid nanoparticles were first diluted to 50 μg/ml using Opti-MEM and pre-incubated with mouse serum for 30 minutes to give an LNP concentration of 8 μg/ml. Cell media was replaced with Opti-MEM and LNPs were added to cells (200 ng of mRNA-LNP), placed back in the incubator, and allowed to transfect for 24 hours. Afterwards, 100 μl of Promega's ONE-Glo™ EX Luciferase Assay System or Promega's CellTiter-Glo® Luminescent Cell Viability Assay was added and mixed in their respective wells, followed by recording luminescence signals on a Thermo Scientific Varioskan LUX multimode microplate reader. The results are shown in FIG. 1, FIG. 2, FIG. 3, FIG. 4, FIG. 5, FIG. 6, FIG. 10, FIG. 11, and FIG. 21.

MC38.K Cell Line = assay: Transfection of MC38.K Cell Line with FLuc mRNA LNPs (ONE-Glo EX luciferase signal); details: 200 ng Fluc mRNA-LNP, 24 hours; for Total Luciferin Signal (RLU) In Vitro - MC38.K: Table 4
Procedure: as §1, §2

AML12 Cell Line = assay: Transfection of AML12 Cell Line with FLuc mRNA LNPs (ONE-Glo EX luciferase signal); details: 200 ng Fluc mRNA-LNP, 24 hours
Procedure: as §1, §2

CCCCCCCCCOC(=O)CCCCCCCN(CCCCO)CCCCCCCC(=O)OCC(CCCCCCCC)CCCCCCCCF (stereo not drawn) [Compound 77, 10-fluoro-2-octyldecyl 8-((4-hydroxybutyl)(8-(nonyloxy)-8-oxooctyl)amino)octanoate]
Total Luciferin Signal (RLU) In Vitro - B16F10 (B16F10 Cell Line; Table 4): 7.80E+06 RLU | Total Luciferin Signal (RLU) In Vitro - MC38.K (MC38.K Cell Line): 3.24E+07 RLU | Total Luciferin Signal (RLU) In Vitro - AML12 (AML12 Cell Line; Table 4): 5.38E+06 RLU

CCCCCCCCC(CCCCCCCC)OC(=O)CCCCCCCN(CCCCCCCC(=O)OCCCCCCCCC(C)C)CCOC(=O)CCCN(C)CCO [Compound 5]
Total Luciferin Signal (RLU) In Vitro - B16F10 (B16F10 Cell Line; Table 4): 1.79E+06 RLU | Total Luciferin Signal (RLU) In Vitro - MC38.K (MC38.K Cell Line): 4.09E+06 RLU | Total Luciferin Signal (RLU) In Vitro - AML12 (AML12 Cell Line; Table 4): 2.04E+05 RLU

CC(C)CCCCCCCCC(=O)OCCCCCCCN(CCO)CCCCCCCOC(=O)CCCCCCCCC(C)C [Compound 48]
Total Luciferin Signal (RLU) In Vitro - B16F10 (B16F10 Cell Line; Table 4): 4.45E+06 RLU | Total Luciferin Signal (RLU) In Vitro - MC38.K (MC38.K Cell Line): 2.17E+06 RLU | Total Luciferin Signal (RLU) In Vitro - AML12 (AML12 Cell Line; Table 4): 3.31E+06 RLU

CCCCCCCCC(CCCCCCCC)OC(=O)CCCCCCCN(CCO)CCCCCCCC(=O)OC(CCCCCCCC)CCCCCCCC [Compound 44]
Total Luciferin Signal (RLU) In Vitro - B16F10 (B16F10 Cell Line; Table 4): 1.26E+06 RLU | Total Luciferin Signal (RLU) In Vitro - MC38.K (MC38.K Cell Line): 3.17E+06 RLU | Total Luciferin Signal (RLU) In Vitro - AML12 (AML12 Cell Line; Table 4): 8.87E+05 RLU

CCCCCCC(CCCCCCCCF)COC(=O)CCCCCCCN(CCO)CCCCCCC(C)C(=O)OCCCCCCCCC(C)C (stereo not drawn) [Compound 73, 9-methyldecyl 8-((8-((10-fluoro-2-hexyldecyl)oxy)-8-oxooctyl)(2-hydroxyethyl)amino)-2-methyloctanoate]
Total Luciferin Signal (RLU) In Vitro - B16F10 (B16F10 Cell Line; Table 4): 7.08E+06 RLU | Total Luciferin Signal (RLU) In Vitro - MC38.K (MC38.K Cell Line): 1.77E+07 RLU | Total Luciferin Signal (RLU) In Vitro - AML12 (AML12 Cell Line; Table 4): 2.93E+06 RLU

CCCCCCCCC(CCCCCCCCF)C(=O)OCCCCCCCN(CCCCO)CCCCCCCOC(=O)C(C)CCCCCCCC(C)C (stereo not drawn) [Compound 89, 7-((7-((10-fluoro-2-octyldecanoyl)oxy)heptyl)(4-hydroxybutyl)amino)heptyl 2,10-dimethylundecanoate]
Total Luciferin Signal (RLU) In Vitro - B16F10 (B16F10 Cell Line; Table 4): 9.61E+06 RLU | Total Luciferin Signal (RLU) In Vitro - MC38.K (MC38.K Cell Line): 3.88E+07 RLU | Total Luciferin Signal (RLU) In Vitro - AML12 (AML12 Cell Line; Table 4): 7.66E+06 RLU

CCCCCCC(CCCCCCCCF)COC(=O)CCCCCCCN(CCCCO)CCCCCCC(C)C(=O)OCCCCCCCCC(C)C (stereo not drawn) [Compound 86, 9-methyldecyl 8-((8-((10-fluoro-2-hexyldecyl)oxy)-8-oxooctyl)(4-hydroxybutyl)amino)-2-methyloctanoate]
Total Luciferin Signal (RLU) In Vitro - B16F10 (B16F10 Cell Line; Table 4): 7.58E+06 RLU | Total Luciferin Signal (RLU) In Vitro - MC38.K (MC38.K Cell Line): 3.80E+07 RLU | Total Luciferin Signal (RLU) In Vitro - AML12 (AML12 Cell Line; Table 4): 3.99E+06 RLU

CCCCCCCCC(CCCCCCCCF)OC(=O)CCCCCCCN(CCCCCCC(C)C(=O)OCCCCCCCCC(C)C)CC(C)CO (stereo not drawn) [Compound 75, 9-methyldecyl 8-((8-((1-fluoroheptadecan-9-yl)oxy)-8-oxooctyl)(3-hydroxy-2-methylpropyl)amino)-2-methyloctanoate]
Total Luciferin Signal (RLU) In Vitro - B16F10 (B16F10 Cell Line; Table 4): 2.15E+04 RLU | Total Luciferin Signal (RLU) In Vitro - MC38.K (MC38.K Cell Line): 4.51E+04 RLU | Total Luciferin Signal (RLU) In Vitro - AML12 (AML12 Cell Line; Table 4): 1.59E+04 RLU

CCCCCCCCC(CCCCCCCF)OC(=O)CCCCCCCN(CCO)CCCCCC(=O)OCCCCCCCCC(C)C (stereo not drawn) [Compound 28]
Total Luciferin Signal (RLU) In Vitro - B16F10 (B16F10 Cell Line; Table 4): 2.34E+05 RLU | Total Luciferin Signal (RLU) In Vitro - MC38.K (MC38.K Cell Line): 5.09E+05 RLU | Total Luciferin Signal (RLU) In Vitro - AML12 (AML12 Cell Line; Table 4): 1.65E+05 RLU

CCCCCCCCCOC(=O)CCCCCN(CCO)CCCCCC(=O)OCCCCCCCCC [Compound 50]
Total Luciferin Signal (RLU) In Vitro - B16F10 (B16F10 Cell Line; Table 4): 1.30E+04 RLU | Total Luciferin Signal (RLU) In Vitro - MC38.K (MC38.K Cell Line): 1.85E+04 RLU | Total Luciferin Signal (RLU) In Vitro - AML12 (AML12 Cell Line; Table 4): 1.54E+04 RLU

CCCCCCCCC(CCCCCCCC)OC(=O)CCCCCCCN(CCCCCCCC(=O)OCCCCCCCCF)CCOC(=O)CCCN(C)C [Compound 22]
Total Luciferin Signal (RLU) In Vitro - B16F10 (B16F10 Cell Line; Table 4): 5.04E+05 RLU | Total Luciferin Signal (RLU) In Vitro - MC38.K (MC38.K Cell Line): 2.65E+06 RLU | Total Luciferin Signal (RLU) In Vitro - AML12 (AML12 Cell Line; Table 4): 1.24E+05 RLU

CCCCCCCCCOC(=O)C(C)CCCCCCN(CCO)CCCCCCCCOC(=O)C(CCCC)CCCCCCF (stereo not drawn) [Compound 74, 8-((2-hydroxyethyl)(7-methyl-8-(nonyloxy)-8-oxooctyl)amino)octyl 2-butyl-8-fluorooctanoate]
Total Luciferin Signal (RLU) In Vitro - B16F10 (B16F10 Cell Line; Table 4): 6.66E+04 RLU | Total Luciferin Signal (RLU) In Vitro - MC38.K (MC38.K Cell Line): 1.94E+05 RLU | Total Luciferin Signal (RLU) In Vitro - AML12 (AML12 Cell Line; Table 4): 2.80E+04 RLU

CCCCCCCCCC(=O)OCCCCCCCN(CCO)CCCCCCCOC(=O)CCCCCCCCC [Compound 47]
Total Luciferin Signal (RLU) In Vitro - B16F10 (B16F10 Cell Line; Table 4): 3.88E+04 RLU | Total Luciferin Signal (RLU) In Vitro - MC38.K (MC38.K Cell Line): 5.18E+04 RLU | Total Luciferin Signal (RLU) In Vitro - AML12 (AML12 Cell Line; Table 4): 3.52E+04 RLU

CCCCCCCC/C=C\CCCCCCC1CN(CCO)CC(CCCCCC(=O)OC(CCCCCCCC)CCCCCCC(C)C)O1 (stereo not drawn) [Compound 98, 2-methylheptadecan-9-yl (Z)-6-(6-(hexadec-7-en-1-yl)-4-(2-hydroxyethyl)morpholin-2-yl)hexanoate]
Total Luciferin Signal (RLU) In Vitro - B16F10 (B16F10 Cell Line; Table 5): 1.27E+05 RLU | Total Luciferin Signal (RLU) In Vitro-MC38 (MC38.K Cell Line; Table 5): 7.95E+04 RLU | Total Luciferin Signal (RLU) In Vitro - AML12 (AML12 Cell Line; Table 5): 4.38E+04 RLU

CCCCCCCCCOC(=O)CCCCCCCN(CCO)CCCCCCCC(=O)OC(CCCCCCCC)CCCCCCCCCl (stereo not drawn) [Compound 83, 1-chloroheptadecan-9-yl 8-((2-hydroxyethyl)(8-(nonyloxy)-8-oxooctyl)amino)octanoate]
Total Luciferin Signal (RLU) In Vitro - B16F10 (B16F10 Cell Line; Table 4): 4.41E+05 RLU | Total Luciferin Signal (RLU) In Vitro - MC38.K (MC38.K Cell Line): 2.14E+06 RLU | Total Luciferin Signal (RLU) In Vitro - AML12 (AML12 Cell Line; Table 4): 1.85E+05 RLU

CCCCC(CCCCCCF)C(=O)OCCCCCCCCN(CCO)CCCCCCC(C)C(=O)OCCCCCCCCC(C)C (stereo not drawn) [Compound 79, 8-((2-hydroxyethyl)(7-methyl-8-((9-methyldecyl)oxy)-8-oxooctyl)amino)octyl 2-butyl-8-fluorooctanoate]
Total Luciferin Signal (RLU) In Vitro - B16F10 (B16F10 Cell Line; Table 4): 1.84E+06 RLU | Total Luciferin Signal (RLU) In Vitro - MC38.K (MC38.K Cell Line): 1.65E+07 RLU | Total Luciferin Signal (RLU) In Vitro - AML12 (AML12 Cell Line; Table 4): 7.26E+05 RLU

CCCCCCCCC(CCCCCCCC)C(=O)OCCCCCCCN(CCCCCOC(=O)CCCCCCCCC(C)C)CCOC(=O)CCCN(C)C [Compound 13]
Total Luciferin Signal (RLU) In Vitro - B16F10 (B16F10 Cell Line; Table 4): 2.12E+06 RLU | Total Luciferin Signal (RLU) In Vitro - MC38.K (MC38.K Cell Line): 7.83E+05 RLU | Total Luciferin Signal (RLU) In Vitro - AML12 (AML12 Cell Line; Table 4): 1.44E+06 RLU

CCCCCCCCCOC(=O)C(C)CCCCCCN(CCCCO)CCCCCCCC(=O)OCC(CCCCCC)CCCCCCCCF (stereo not drawn) [Compound 85, nonyl 8-((8-((10-fluoro-2-hexyldecyl)oxy)-8-oxooctyl)(4-hydroxybutyl)amino)-2-methyloctanoate]
Total Luciferin Signal (RLU) In Vitro - B16F10 (B16F10 Cell Line; Table 4): 1.03E+07 RLU | Total Luciferin Signal (RLU) In Vitro - MC38.K (MC38.K Cell Line): 6.32E+07 RLU | Total Luciferin Signal (RLU) In Vitro - AML12 (AML12 Cell Line; Table 4): 7.47E+06 RLU

CCCCCCCCCOC(=O)C(C)CCCCCCN(CCO)CCCCCCCC(=O)OCC(CCCCCC)CCCCCCCCF (stereo not drawn) [Compound 78, nonyl 8-((8-((10-fluoro-2-hexyldecyl)oxy)-8-oxooctyl)(2-hydroxyethyl)amino)-2-methyloctanoate]
Total Luciferin Signal (RLU) In Vitro - B16F10 (B16F10 Cell Line; Table 4): 6.65E+06 RLU | Total Luciferin Signal (RLU) In Vitro - MC38.K (MC38.K Cell Line): 2.21E+07 RLU | Total Luciferin Signal (RLU) In Vitro - AML12 (AML12 Cell Line; Table 4): 2.42E+06 RLU

CCCCCCCCC(CCCCCCCC)C(=O)OCCCCCCCN(CCO)CCCCCCCOC(=O)C(CCCCCCCC)CCCCCCCC [Compound 46]
Total Luciferin Signal (RLU) In Vitro - B16F10 (B16F10 Cell Line; Table 4): 1.48E+06 RLU | Total Luciferin Signal (RLU) In Vitro - MC38.K (MC38.K Cell Line): 4.59E+06 RLU | Total Luciferin Signal (RLU) In Vitro - AML12 (AML12 Cell Line; Table 4): 1.30E+06 RLU

Source: US20260116845A1, “LIPIDS AND COMPOSITIONS THEREOF” (Kernal Biologics, Inc., priority 2023, published 2026)
